Assay results reported in USRE34918E, “Azaazulene compounds which are useful as antiallergic and antiinflammatory agents” (Kaken Pharmaceutical Co., Ltd., priority 1988, dated 1995).
Counter-ions that a name gives are not always drawn.

Key:
[1] = system: histamine release from rat mast cell; experiment: Inhibitory activity against histamine release from rat mast cell; format: cell-based; conditions: 10 μg/ml, read-out: Inhibitory rate against histamine release
Description: An anti-dinitrophenylated-ovalbumin (anti DNP-OVA) rat antiserum having 800 of PCA titer in homologous passive cutaneous anaphylaxis reaction in rats for 48 hours was diluted double with physiological saline, and 1 ml of diluted antiserum was injected intraperitoneally into rats to be passively sensitized. On the next day, peritoneal exudation cell (hereinafter referred to as "PEC") was collected. The collected PEC was washed with a medium containing 0.1% BSA, and 1.5×10^5 of the PEC were added to each test tube. AFter incubation at 37° C. for 10 minutes, 50 μl of test compound solution in a same medium was added thereto. After 30 seconds, 50 μl of antigen solution (DVA-OVA 100 μg/ml) was further added thereto to give the total amount of 500 μl of the reaction mixture, and histamine release reaction was induced. After 10 minutes, 1 ml of physiological saline with cooled Tris buffered solution containing 1 mM EDTA were added thereto to stop the reaction. After centrifugation, the amount of histamine in supernatant was determined by fluorescence method according to the method of Shore et al [cf. J. Pharmacol. Exp. Ther., 127, 182 (1959)]. Inhibition rate against histamine release was calculated according to the following equation.
Inhibition rate against histamine release [formula] M: Amount of histamine in supernatant under addition of antigen and non-addition of test compound
S: Amount of histamine in supernatant under addition of antigen and test compound
B: Amount of histamine in supernatant under non-addition of antigen and test compound.
The test compound was used in a concentration of 10 μg/ml.

5-lipoxygenase = biological target: T1, 5-lipoxygenase (Cavia porcellus, UniProt A0A286X958); experiment: 5-lipoxygenase inhibiting activity in guinea pig; format: biochemical; conditions: read-out: Inhibition rate against 5-lipoxygenase activity
T1 construct: 5-lipoxygenase was prepared with polymorphonuclear leukocyte obtained from peritoneal cavity; endogenous in cells; host or cells: guinea pig peritoneal polymorphonuclear leukocytes (casein-elicited)
T1 sequence (A0A286X958 1-674): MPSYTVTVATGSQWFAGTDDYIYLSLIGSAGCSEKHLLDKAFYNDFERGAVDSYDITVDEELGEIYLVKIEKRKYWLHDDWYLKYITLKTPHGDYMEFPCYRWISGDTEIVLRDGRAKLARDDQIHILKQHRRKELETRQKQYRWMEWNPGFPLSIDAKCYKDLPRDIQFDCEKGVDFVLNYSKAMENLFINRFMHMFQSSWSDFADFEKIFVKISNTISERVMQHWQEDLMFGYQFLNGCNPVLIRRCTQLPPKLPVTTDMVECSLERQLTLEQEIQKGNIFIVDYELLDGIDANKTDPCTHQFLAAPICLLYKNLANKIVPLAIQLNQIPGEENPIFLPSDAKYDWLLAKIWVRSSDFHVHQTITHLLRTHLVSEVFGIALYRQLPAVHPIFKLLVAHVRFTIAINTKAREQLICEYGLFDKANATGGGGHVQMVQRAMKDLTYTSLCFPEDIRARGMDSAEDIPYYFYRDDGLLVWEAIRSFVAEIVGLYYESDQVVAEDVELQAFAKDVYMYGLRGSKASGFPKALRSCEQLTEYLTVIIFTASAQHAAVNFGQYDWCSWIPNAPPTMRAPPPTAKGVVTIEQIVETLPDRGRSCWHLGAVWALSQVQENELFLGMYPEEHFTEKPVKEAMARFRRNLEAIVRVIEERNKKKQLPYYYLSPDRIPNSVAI
Description: The test was carried out according to the method of Ochi [cf. J. Biol. Chem., 258, 5754-5758 (1983)]. Two % casein solution in saline was injected intraperitoneally into guinea pigs in an amount of 1/10 of body weight. After 16 hours, 5-lipoxygenase was prepared with polymorphonuclear leukocyte obtained from peritoneal cavity. Test compound and 5-lipoxygenase were pre-incubated at 30° C. for 10 minutes, CaCl2 (calcium chloride) and ^14 C-arachidonic acid were added thereto, and the resulting mixture was incubated for 20 minutes. A mixture of ethyl acetate/methanol/0.2M citric acid=30/4/1 (by volume) was added thereto to stop the reaction. After centrifugation, the organic solvent layer was spotted on a plate for thin layer chromatography and developed. Effect of the test compound was determined from the amount of ^14 C-5-hydroxyeicosatetraenoic acid (hereinafter referred to as "5-HETE") formed from ^14 C-arachidonic acid. Radioactivity of 5-HETE position was measured with a liquid scintillation counter.
Inhibition rate against 5-lipoxygenase activity was calculated according to the following equation.
Inhibition rate against 5-lipoxygenase activity [formula] A: Value of radioactivity in the control group B: Value of radioactivity in the test compound group
Each test compound was used in a concentration of 10 μM.

SMILES	inhibition at 10 µg/mL [1] [%]	inhibition at 10 µM (5-lipoxygenase) [%]
O=c1c(-c2nn[nH]n2)c2cccccc-2n1Cc1ccc(O)cc1 [Example 40]	93.5	
O=c1c(-c2nn[nH]n2)c2cccccc-2n1CCCc1ccccc1 [Example 28]	92.6	
Cn1c2cccccc-2c(-c2nnn[nH]2)c1=O [Example 15]	96.1	
O=c1c(-c2nn[nH]n2)c2cccccc-2n1Cc1ccccc1F [Example 34]	87.3	
CCCc1c(OCCCn2c3cccc(C(C)C)cc-3c(-c3nn[nH]n3)c2=O)ccc(C(C)=O)c1O [Example 50]	59.8	
CC(C)c1cccc2n(Cc3ccc(Cl)cc3)c(=O)c(-c3nn[nH]n3)c-2c1 [Example 56]	88	
O=c1c(-c2nn[nH]n2)c2cccccc-2n1CCc1ccccc1 [Example 26]	94.1	
N#Cc1ccc(Cn2c3cccccc-3c(-c3nn[nH]n3)c2=O)cc1 [Example 36]	43.2	
N#Cc1c2cccccc-2nc1NCCN1CCCC1 [Example 75]	-9.6	
C=CCn1c2cccccc-2c(-c2nnn[nH]2)c1=O [Example 22]	84.2	
CC(C)c1cccc2c(-c3nn[nH]n3)c(=O)n(CCCc3ccccc3)c-2c1 [Example 29]	99.5	17.3
CC(C)c1cccc2n(Cc3ccc4ccccc4n3)c(=O)c(-c3nn[nH]n3)c-2c1 [Example 53]	56.3	
CC(C)c1cccc2c(-c3nn[nH]n3)c(=O)n(CCc3ccccc3)c-2c1 [Example 27]	89.6	
O=c1c(-c2nn[nH]n2)c2cccccc-2n1CCOc1ccccc1 [Example 43]	65.3	-7.2
CCCCCCn1c2cccccc-2c(-c2nnn[nH]2)c1=O [Example 20]	91.1	
O=c1c(-c2nn[nH]n2)c2cccccc-2n1CC=Cc1ccccc1 [Example 42]	78.2	
COc1ccccc1N1CCN(c2nc3cccccc-3c2C#N)CC1 [Example 64, 3-Cyano-2-(4-(2-methoxyphenyl)piperazinyl)-1-azaazulene]	-12.2	
O=c1c(-c2nn[nH]n2)c2cccccc-2n1CCCCCc1ccccc1 [Example 32]	1.5	
CCOC(=O)C(Cc1ccccc1)Nc1nc2cccccc-2c1C#N (stereo not shown) [Example 70]	4.2	

SMILES	inhibition at 10 µg/mL [1] [%]	inhibition at 10 µM (5-lipoxygenase) [%]
COC(=O)c1ccccc1Nc1nc2cccccc-2c1C#N [Example 68]	8.9	
CC(C)c1cccc2n(Cc3cccs3)c(=O)c(-c3nn[nH]n3)c-2c1 [Example 55]	65.8	
O=c1c(-c2nn[nH]n2)c2cccccc-2n1CCCCl [Example 54]	55.5	
N#Cc1c2cccccc-2nc1Nc1ccc(C(=O)O)cc1 [Example 67]	57	
N#Cc1c2cccccc-2nc1NC(Cc1ccccc1)C(=O)O (stereo not shown) [Example 71]	8.1	
CCOC(=O)c1ccc(Cn2c3cccccc-3c(-c3nn[nH]n3)c2=O)cc1 [Example 37]	64.8	
COC(=O)C1CCCN1c1nc2cccccc-2c1C#N (stereo not shown) [Example 77]	35.7	
N#Cc1c2cccccc-2nc1N [Example 74]	64.8	
CC(C)c1cccc2n(CCc3ccc(O)c(O)c3)c(=O)c(-c3nnn[nH]3)c-2c1 [Example 12, 1-(3,4-Dihydroxyphenylethyl)-5-iso-propyl-3-(5-tetrazolyl)-1-azaazulane-2-one]	60	
N#Cc1c2cccccc-2nc1N1CCCC1C(=O)O (stereo not shown) [Example 78]	50.5	
O=c1[nH]c2cccccc-2c1-c1nnn[nH]1 [Example 14]	89.6	
CC(C)c1cccc2c(-c3nn[nH]n3)c(=O)n(CCCCc3ccccc3)c-2c1 [Example 51]	63.6	-2.2
CC(C)n1c2cccccc-2c(-c2nn[nH]n2)c1=O [Example 52]	81.2	
O=c1c(-c2nn[nH]n2)c2cccccc-2n1Cc1ccc(C(F)(F)F)cc1 [Example 35]	54.1	34.9
O=c1c(-c2nnn[nH]2)c2cccccc-2n1CCC(c1ccccc1)c1ccccc1 [Example 25]	4.6	
O=C(Cn1c2cccccc-2c(-c2nn[nH]n2)c1=O)c1ccc(Cl)cc1 [Example 41]	32.3	
O=c1c(-c2nnn[nH]2)c2cccccc-2n1Cc1ccc(Cl)cc1 [Example 11, 1-(4-Chlorobenzyl)-3-(5-tetrazolyl)-1-azaazulane-2-one]	85.8	
N#Cc1c2cccccc-2nc1NC(c1ccccc1)c1ccccc1 [Example 65]	17.5	
N#CCCCn1c2cccccc-2c(-c2nnn[nH]2)c1=O [Example 24]	86.3	

SMILES	inhibition at 10 µg/mL [1] [%]	inhibition at 10 µM (5-lipoxygenase) [%]
O=c1c(-c2nn[nH]n2)c2cccccc-2n1CCCCc1ccccc1 [Example 31]	70	
O=c1c(-c2nn[nH]n2)c2cccccc-2n1Cc1ccc(Cl)cc1Cl [Example 45]	19.3	
N#Cc1c2cccccc-2nc1NCC(c1ccccc1)c1ccccc1 [Example 58, 3-Cyano-2-(2,2-diphenylethylamino)-1-azaazulene]	16.1	
CC(C)c1cccc2c(C#N)c(NCC(=O)O)nc-2c1 [Example 79]	85.8	
CC(C)c1cccc2nc(NCC(=O)O)c(C#N)c-2c1 [Example 63, Sodium salt of 2-carboxymethylamino-3-cyano-5-isopropyl-1-azaazulene]	85.3	
COc1ccc(Cn2c3cccccc-3c(-c3nn[nH]n3)c2=O)cc1 [Example 39]	93	
CC(C)c1cccc2nc(N=[N+]=[N-])c(C#N)c-2c1 [Example 76]	70.5	
CCOCCn1c2cccccc-2c(-c2nnn[nH]2)c1=O [Example 23]	87.2	
CC(Nc1nc2cccccc-2c1C#N)C(=O)O (stereo not shown) [Example 73]	60.8	
CC(C)c1cccc2c(C#N)c(N=[N+]=[N-])nc-2c1 [Example 61, 2-Azido-3-cyano-7-isopropyl-1-azaazulene]	3.8	
CCCCCCCCCCCCCCCCCCn1c2cccccc-2c(-c2nnn[nH]2)c1=O [Example 21]	10.1	
CC(C)c1cccc2c(-c3nn[nH]n3)c(=O)n(Cc3ccc(Cl)cc3)c-2c1 [Example 57]	89	
N#Cc1c2cccccc-2nc1N1CCN(C(c2ccccc2)c2ccccc2)CC1 [Example 69]	33.2	
CCOC(=O)c1ccc(Nc2nc3cccccc-3c2C#N)cc1 [Example 66]	20.5	
O=c1c(-c2nn[nH]n2)c2cccccc-2n1Cc1cccc(F)c1 [Example 33]	67.2	
Cc1cc(C)c(Cn2c3cccccc-3c(-c3nn[nH]n3)c2=O)c(C)c1 [Example 47]	12.6	
O=c1c(-c2nnn[nH]2)c2cccccc-2n1Cc1ccc(F)cc1 [Example 8, 1-(4-Fluorobenzyl)-3-(5-tetrazolyl)-1-azaazulane-2-one]	89.6	
N#Cc1c2cccccc-2nc1NC(CO)C(=O)O (stereo not shown) [Example 72]	22.5	
N#Cc1c2cccccc-2nc1NCCC(c1ccccc1)c1ccccc1 [Example 59, 3-Cyano-2-(3,3-diphenylpropylamino)-1-azaazulene]	14	
